# Assay results published in US20230338378A1, “Methods of Administering Myosin Inhibitors” (MYOKARDIA, INC., priority 2022, published 2023).
# How the values were obtained:
# [1] = system: adults with symptomatic NYHA class II and III obstructive HCM; test: EXPLORER-HCM Phase 3, double-blind, randomized, placebo-controlled trial; type: in vivo, human
# Procedure: The safety of MAVACAMTEN was evaluated in EXPLORER-HCM, a Phase 3, double-blind, randomized, placebo-controlled trial. Of the 251 adults with obstructive HCM, 123 patients were treated with MAVACAMTEN 2.5-15 mg daily and 128 were treated with placebo.
# The efficacy of MAVACAMTEN was evaluated in EXPLORER-HCM (NCT-03470545) a Phase 3, double-blind, randomized, placebo-controlled, multicenter, international, parallel-group trial in 251 adults with symptomatic NYHA class II and III obstructive HCM, LVEF≥55%, and Valsalva LVOT peak gradient ≥50 mmHg at rest or with provocation.
# Patients on dual therapy with beta blocker and calcium channel blocker treatment or monotherapy with disopyramide or ranolazine were excluded. Patients with a known infiltrative or storage disorder causing cardiac hypertrophy that mimicked obstructive HCM, such as Fabry disease, amyloidosis, or Noonan syndrome with left ventricular hypertrophy, were also excluded.
# Patients were randomized in a 1:1 ratio to receive either a starting dose of 5 mg of MAVACAMTEN or placebo once daily for 30 weeks. Treatment assignment was stratified by baseline NYHA functional class, baseline use of beta blockers, and type of ergometer (treadmill or exercise bicycle).
# All patients were initiated on MAVACAMTEN 5 mg (or matching placebo) once daily, and the dose was periodically adjusted to optimize patient response (decrease in LVOT gradient with Valsalva maneuver) and maintain LVEF≥50%. The dose was also informed by plasma concentrations of MAVACAMTEN.
# The primary composite functional endpoint, assessed at 30 weeks, was defined as the proportion of patients who achieved either improvement of […] (pVO2) by ≥1.5 mL/kg/min plus improvement in NYHA class by at least 1 or improvement of pVO2 by ≥3.0 mL/kg/min plus no worsening in NYHA class.
# The treatment effects of MAVACAMTEN on LVOT obstruction, functional capacity, and health status were assessed by change from baseline through Week 30 in post-exercise LVOT peak gradient, change in pVO2, proportion of patients with improvement in NYHA class, Kansas City Cardiomyopathy Questionnaire-23 (KCCQ-23) Clinical Summary Score (CSS), and Hypertrophic Cardiomyopathy Symptom Questionnaire (HCMSQ) Shortness of Breath (SoB) domain score.
# Missing data were not imputed to summarize the baseline and change from baseline to Week 30 values. Difference in mean change from baseline between treatment groups was estimated using a mixed model for repeated measures.
# [2] = system: organic anion transporting polypeptides (OATPs); test: In vitro transporter inhibition; type: in vitro ADME; conditions: In Vitro Studies
# CYP2C9 = CYP2C9 (Homo sapiens, UniProt P11712); test: Metabolism through CYP enzymes
# Sequence of CYP2C9 (P11712 whole entry): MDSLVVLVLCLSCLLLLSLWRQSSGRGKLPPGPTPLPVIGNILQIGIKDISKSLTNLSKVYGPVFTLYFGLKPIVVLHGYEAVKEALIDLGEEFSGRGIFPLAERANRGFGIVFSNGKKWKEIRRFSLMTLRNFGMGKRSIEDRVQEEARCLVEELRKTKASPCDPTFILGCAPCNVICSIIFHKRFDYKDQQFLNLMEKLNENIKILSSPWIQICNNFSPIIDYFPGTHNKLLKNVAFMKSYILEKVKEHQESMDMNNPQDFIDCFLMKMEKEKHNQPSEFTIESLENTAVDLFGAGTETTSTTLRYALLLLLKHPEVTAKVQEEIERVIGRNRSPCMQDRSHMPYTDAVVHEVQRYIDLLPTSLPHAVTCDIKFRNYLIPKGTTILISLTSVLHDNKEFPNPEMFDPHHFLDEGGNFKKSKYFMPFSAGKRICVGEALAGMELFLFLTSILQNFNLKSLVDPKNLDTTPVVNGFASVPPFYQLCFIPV
# rasH2 transgenic mouse = test: 6-month rasH2 transgenic mouse carcinogenicity study; type: in vivo
# MATE1 = MATE1 (Homo sapiens, UniProt Q96FL8); test: In vitro transporter inhibition; type: in vitro ADME; conditions: In Vitro Studies
# Sequence of MATE1 (Q96FL8 whole entry): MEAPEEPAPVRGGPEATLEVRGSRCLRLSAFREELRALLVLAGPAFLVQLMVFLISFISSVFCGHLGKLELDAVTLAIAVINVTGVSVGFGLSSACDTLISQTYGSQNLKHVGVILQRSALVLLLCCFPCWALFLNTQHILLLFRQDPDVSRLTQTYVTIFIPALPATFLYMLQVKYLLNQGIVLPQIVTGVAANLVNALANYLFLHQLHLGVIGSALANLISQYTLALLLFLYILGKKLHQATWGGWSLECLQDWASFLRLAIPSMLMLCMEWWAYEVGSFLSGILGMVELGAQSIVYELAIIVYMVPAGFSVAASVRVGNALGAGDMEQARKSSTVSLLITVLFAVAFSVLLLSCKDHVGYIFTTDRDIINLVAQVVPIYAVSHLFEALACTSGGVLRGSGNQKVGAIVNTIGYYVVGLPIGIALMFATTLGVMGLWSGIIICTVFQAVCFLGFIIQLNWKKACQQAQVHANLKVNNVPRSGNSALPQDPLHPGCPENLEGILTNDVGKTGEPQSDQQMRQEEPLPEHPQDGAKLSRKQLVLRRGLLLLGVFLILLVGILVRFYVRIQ
# CYP2B6 = CYP2B6 (Homo sapiens, UniProt P20813); test: In vitro CYP inhibition; type: in vitro ADME; conditions: In Vitro Studies
# Sequence of CYP2B6 (P20813 whole entry): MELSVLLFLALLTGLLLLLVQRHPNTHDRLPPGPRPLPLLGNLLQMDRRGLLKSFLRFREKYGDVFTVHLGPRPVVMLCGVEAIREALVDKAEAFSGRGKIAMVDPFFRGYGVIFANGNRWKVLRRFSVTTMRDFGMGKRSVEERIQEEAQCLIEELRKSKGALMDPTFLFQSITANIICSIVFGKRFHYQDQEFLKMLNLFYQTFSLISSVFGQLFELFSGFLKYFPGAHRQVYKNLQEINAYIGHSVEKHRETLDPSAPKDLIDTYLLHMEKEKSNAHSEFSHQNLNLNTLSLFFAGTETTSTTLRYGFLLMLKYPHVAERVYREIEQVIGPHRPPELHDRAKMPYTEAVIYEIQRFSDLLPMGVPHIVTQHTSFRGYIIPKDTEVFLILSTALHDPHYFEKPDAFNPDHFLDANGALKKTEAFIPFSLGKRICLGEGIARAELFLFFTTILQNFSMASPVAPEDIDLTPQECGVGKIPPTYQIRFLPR
# BCRP = BCRP (Homo sapiens, UniProt Q9UNQ0); test: In vitro transporter inhibition; type: in vitro ADME; conditions: In Vitro Studies
# Sequence of BCRP (Q9UNQ0 whole entry): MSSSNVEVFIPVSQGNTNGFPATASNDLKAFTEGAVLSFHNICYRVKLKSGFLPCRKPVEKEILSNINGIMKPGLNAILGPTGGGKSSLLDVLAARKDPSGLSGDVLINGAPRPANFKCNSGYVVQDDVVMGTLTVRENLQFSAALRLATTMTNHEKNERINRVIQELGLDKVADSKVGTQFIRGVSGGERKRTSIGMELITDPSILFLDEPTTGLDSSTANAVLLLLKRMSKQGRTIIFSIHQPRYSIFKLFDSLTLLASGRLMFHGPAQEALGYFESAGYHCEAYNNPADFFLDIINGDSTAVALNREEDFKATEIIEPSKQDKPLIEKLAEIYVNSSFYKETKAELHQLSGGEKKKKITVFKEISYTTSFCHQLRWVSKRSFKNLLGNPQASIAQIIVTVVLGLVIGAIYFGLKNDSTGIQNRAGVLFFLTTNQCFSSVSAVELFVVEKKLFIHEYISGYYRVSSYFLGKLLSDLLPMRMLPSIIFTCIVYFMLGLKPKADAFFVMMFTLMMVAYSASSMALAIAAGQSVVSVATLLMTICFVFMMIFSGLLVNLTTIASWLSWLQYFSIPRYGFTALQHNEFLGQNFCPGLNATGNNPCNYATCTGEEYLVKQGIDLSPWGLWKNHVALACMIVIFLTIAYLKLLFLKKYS
# Plasma protein binding = type: in vitro ADME
# CYP2C19 = test: Pharmacogenomics: CYP2C19 poor vs normal metabolizers, single 15 mg dose; type: in vivo, human; conditions: for half-life: human, in vivo, 15 mg
# Excerpt: Mean half-life is prolonged in CYP2C19 PMs compared to NMs (23 days vs. 6 to 9 days, respectively).
# Polymorphic CYP2C19 is the main enzyme involved in the metabolism of MAVACAMTEN. An individual carrying two normal function alleles is a NM (e.g., *1/*1). An individual carrying two no function alleles is a PM (e.g., *2/*2, *2/*3, *3/*3).
# male or female rats = test: Reproductive toxicity studies (mating and fertility); type: in vivo, rat
# CYP3A4 = CYP3A4 (Homo sapiens, UniProt P08684); test: Concomitant use with moderate CYP3A4 inhibitor verapamil; type: in vivo; design: Mavacamten is hepatically metabolized predominantly via CYP2C19 (74%), CYP3A4 (18%) and CYP2C9 (8%); from tissue; host or cells: liver of human subjects in vivo, or a Simcyp virtual population; conditions: mavacamten 25 mg with verapamil sustained release 240 mg; CYP2C19 IMs and NMs
# Sequence of CYP3A4 (P08684 whole entry): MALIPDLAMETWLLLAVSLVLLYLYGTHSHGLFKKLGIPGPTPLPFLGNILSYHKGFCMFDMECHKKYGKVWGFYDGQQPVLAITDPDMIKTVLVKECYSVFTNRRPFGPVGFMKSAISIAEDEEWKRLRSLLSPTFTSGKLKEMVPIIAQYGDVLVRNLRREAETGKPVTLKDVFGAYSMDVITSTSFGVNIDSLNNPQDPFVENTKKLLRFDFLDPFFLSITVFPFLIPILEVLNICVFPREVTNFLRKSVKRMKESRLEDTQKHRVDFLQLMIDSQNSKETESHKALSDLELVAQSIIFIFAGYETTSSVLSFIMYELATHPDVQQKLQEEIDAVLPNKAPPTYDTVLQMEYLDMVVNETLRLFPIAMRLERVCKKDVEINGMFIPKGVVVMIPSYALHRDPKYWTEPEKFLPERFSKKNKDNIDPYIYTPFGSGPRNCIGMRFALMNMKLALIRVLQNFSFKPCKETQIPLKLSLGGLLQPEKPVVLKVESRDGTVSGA
# [3] = system: adults with symptomatic NYHA class II and III obstructive HCM; conditions: phase 3 EXPLORER-HCM, oHCM patient population (Olivotto et al., 2020); cited from earlier work
# [4] = Baseline to Week 30, vs Placebo
# [5] = CYP2C19 PMs compared to NMs, single dose of 15 mg
smiles,measurement,setting,value
"CC(C)n1c(=O)cc(N[C@@H](C)c2ccccc2)[nH]c1=O [mavacamten, (S)-3-Isopropyl-6-((1-phenylethyl)amino)pyrimidine-2,4(1H,3H)-dione]",Change from baseline pVO2 ≥1.5 mL/kg/min and decreased NYHA,"[1]; 30 Weeks, N = 123",41 (33%)
same,Change from baseline pVO2 ≥3 mL/kg/min and NYHA not increased,"[1]; 30 Weeks, N = 123",29 (23%)
same,Total responders (primary endpoint),"[1]; 30 Weeks, N = 123",45 (37%)
same,"Change from baseline pVO2 ≥1.5 mL/kg/min and decreased NYHA, Difference (95% CI)","[1]; 30 Weeks, vs Placebo","19% (9, 30)"
same,"Change from baseline pVO2 ≥3 mL/kg/min and NYHA not increased, Difference (95% CI)","[1]; 30 Weeks, vs Placebo","13% (3, 22)"
same,"Total responders, Difference (95% CI)","[1]; 30 Weeks, vs Placebo","19% (9, 30)"
same,Number (%) with NYHA Class improved ≥1,"[1]; Baseline to Week 30, N = 123",80 (65%)
same,"Post-Exercise LVOT gradient, mean (SD) change","[1]; Baseline to Week 30, N = 123",−47 (40) mmHg
same,"pVO2, mean (SD) change","[1]; Baseline to Week 30, N = 123",1.4 (3.1) mL/kg/min
same,"NYHA Class improved ≥1, Difference (95% CI)",[1]; [4],"34% (22%, 45%)"
same,"Post-Exercise LVOT gradient, Difference (95% CI)",[1]; [4],"−35 (−43, −28) mmHg"
same,"pVO2, Difference (95% CI)",[1]; [4],"1.4 (0.6, 2.1) mL/kg/min"
same,"Syncope leading to discontinuation, patients",[1]; EXPLORER-HCM,0.8%
same,patients in whom reductions in LVEF to <50% were asymptomatic,[1]; EXPLORER-HCM,3 of the 7
same,patients who temporarily interrupted their dose due to LVEF<50%,[1]; EXPLORER-HCM,Three
same,"patients with reversible reductions in LVEF to <50% while on treatment, n (%)",[1]; EXPLORER-HCM,7 (6%)
same,"Adverse reaction: dizziness, patients","[1]; EXPLORER-HCM, 2.5-15 mg daily",27%
same,"Adverse reaction: syncope, patients","[1]; EXPLORER-HCM, 2.5-15 mg daily",6%
same,mean (SD) change from baseline in Valsalva LVOT gradient,[1]; Week 30,−49 (34) mmHg
same,mean (SD) change from baseline in resting LVOT gradient,[1]; Week 30,−39 (29) mmHg
same,proportion of patients who met the primary endpoint,[1]; Week 30,37%
same,"secondary endpoints (post-exercise LVOT peak gradient, pVO2, NYHA class, KCCQ-23 CSS, HCMSQ SoB)",[1]; Week 30,greater improvement compared to the placebo group across all secondary endpoints
same,"HCMSQ SoB, Difference, LS Mean (95% CI)","[1]; Week 30, vs Placebo","−2 (−2, −1)"
same,"KCCQ-23 CSS, Difference, LS Mean (95% CI)","[1]; Week 30, vs Placebo","9 (5, 13)"
same,reduction in NT-proBNP greater than for placebo,[1]; Week 30 compared with baseline,80%
same,LVEF following interruption in patients with LVEF <50%,[1]; all 7 patients,LVEF recovered
same,Subgroup analysis of the primary composite functional endpoint,[1]; all subgroups analyzed (FIG. 17),consistently favored MAVACAMTEN across all subgroups analyzed
same,benefit in patients on background beta blocker therapy compared to those who were not,[1]; attenuated improvement in pVO2,smaller
same,"KCCQ-23 PL, Change from Baseline to Week 30, Mean (SD)",[1]; in vivo,15 (17)
same,"KCCQ-23 TSS, Change from Baseline to Week 30, Mean (SD)",[1]; in vivo,12 (15)
same,"KCCQ-23 CSS, Change from Baseline to Week 30, Mean (SD)",[1]; n = 99,14 (14)
same,"HCMSQ SoB, Change from Baseline to Week 30, Mean (SD)",[1]; n = 108,−3 (3)
same,mean (SD) absolute change from baseline in LVEF,[1]; over the 30-week treatment period,−4% (8)
same,inhibition of OATPs,[2],does not inhibit
same,metabolized through CYP2C9,CYP2C9,8%
same,carcinogenicity,"rasH2 transgenic mouse; 6-month rasH2 transgenic mouse, up to 2.0 mg/kg/day in males and 3.0 mg/kg/day in females",no evidence of carcinogenicity
same,exposure (AUC) compared to AUC exposures in humans at the MRHD,"rasH2 transgenic mouse; females, 3.0 mg/kg/day",3 fold
same,exposure (AUC) compared to AUC exposures in humans at the MRHD,"rasH2 transgenic mouse; males, 2.0 mg/kg/day",1.8 fold
same,inhibition of MATE1,MATE1,does not inhibit
same,inhibition of CYP2B6,CYP2B6,does not inhibit
same,inhibition of BCRP,BCRP,does not inhibit
same,fraction unbound,Plasma protein binding,0.02 to 0.03
same,AUCinf increase,CYP2C19; [5],241%
same,Cmax increase,CYP2C19; [5],47%
same,half-life,CYP2C19; CYP2C19 NMs,6 to 9 days
same,half-life,CYP2C19; CYP2C19 PMs,23 days
same,effects on the viability and fertility of offspring,male or female rats; dams dosed up to 1.5 mg/kg/day,no evidence of effects
same,effects on mating and fertility,"male or female rats; male or female rats, doses up to 1.2 mg/kg/day",no evidence of effects
same,Plasma exposure (AUC) at the highest dose tested,male or female rats; rats,the same as in humans at the MRHD
same,mavacamten AUCinf increase,CYP3A4,15%
same,mavacamten Cmax increase,CYP3A4,52%
same,"LVOT gradients, symptoms, exercise performance and health status",[3],"effective in reducing LVOT gradients and improving symptoms, exercise performance and health status"
